Source: PubChem BioAssay (NCI)
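Growth conditions: 96-well plates. Treatment: test compound, 48 hours, 5 concentrations. Analysis: linear interpolation between bracketing concentrations; unreached endpoints set to highest concentration. GI50 = concentration required for 50% inhibition of growth. Definition used: TGI = concentration required for complete inhibition of growth.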

Columns and labels:
Assay in all cases: growth of human tumour cells (NCI), 48 h
786-0 renal = tested on: 786-0 renal
A498 renal = tested on: A498 renal
A549 NSCLC = tested on: A549 NSCLC
ACHN renal = tested on: ACHN renal
CCRF-CEM leukemia = tested on: CCRF-CEM leukemia
HCC-2998 colon = tested on: HCC-2998 colon
HL-60(TB) leukemia = tested on: HL-60(TB) leukemia
HOP-62 NSCLC = tested on: HOP-62 NSCLC
HT29 colon = tested on: HT29 colon
IGROV1 ovarian = tested on: IGROV1 ovarian
K-562 leukemia = tested on: K-562 leukemia
KM12 colon = tested on: KM12 colon
LOX IMVI melanoma = tested on: LOX IMVI melanoma
MALME-3M melanoma = tested on: MALME-3M melanoma
MDA-MB-231 breast = tested on: MDA-MB-231 breast
MDA-N = tested on: MDA-N
NCI-H522 lung = tested on: NCI-H522 lung
TK-10 renal = tested on: TK-10 renal
UACC-257 melanoma = tested on: UACC-257 melanoma

O=C(CCc1ccc(O)cc1)NCCc1ccc(O)cc1
TGI (786-0 renal): > 100 µM | TGI (A498 renal): > 100 µM | TGI (A549 NSCLC): > 100 µM | TGI (ACHN renal): > 100 µM | TGI (CCRF-CEM leukemia): > 100 µM | TGI (HCC-2998 colon): > 100 µM | TGI (HL-60(TB) leukemia): > 100 µM | TGI (HOP-62 NSCLC): > 100 µM | TGI (HT29 colon): > 100 µM | TGI (IGROV1 ovarian): > 100 µM | TGI (K-562 leukemia): > 100 µM | TGI (KM12 colon): > 100 µM | TGI (LOX IMVI melanoma): > 100 µM | TGI (MALME-3M melanoma): > 100 µM | TGI (MDA-MB-231 breast): > 100 µM | TGI (MDA-N): > 100 µM | TGI (NCI-H522 lung): > 100 µM | TGI (TK-10 renal): > 100 µM | TGI (UACC-257 melanoma): > 100 µM

COc1ccc(-c2c(C(C)=O)c(-c3ccccc3)n(C3OC(COC(C)=O)C(OC(C)=O)C(OC(C)=O)C3OC(C)=O)c(=S)c2C#N)cc1 (configuration not stated)
TGI (786-0 renal): > 100 µM | TGI (A498 renal): > 100 µM | TGI (A549 NSCLC): > 100 µM | TGI (ACHN renal): > 100 µM | TGI (CCRF-CEM leukemia): > 100 µM | TGI (HCC-2998 colon): > 100 µM | TGI (HL-60(TB) leukemia): > 100 µM | TGI (HOP-62 NSCLC): > 100 µM | TGI (HT29 colon): > 100 µM | TGI (IGROV1 ovarian): > 100 µM | TGI (K-562 leukemia): > 100 µM | TGI (KM12 colon): > 100 µM | TGI (LOX IMVI melanoma): > 100 µM | TGI (MALME-3M melanoma): > 100 µM | TGI (MDA-MB-231 breast): > 100 µM | TGI (MDA-N): > 100 µM | TGI (NCI-H522 lung): > 100 µM | TGI (TK-10 renal): > 100 µM | TGI (UACC-257 melanoma): > 100 µM

CCOC(=O)/C(O)=C(/C=NC(=S)c1ccncc1)C(=O)OCC
TGI (786-0 renal): > 100 µM | TGI (A498 renal): > 100 µM | TGI (A549 NSCLC): > 100 µM | TGI (ACHN renal): > 100 µM | TGI (CCRF-CEM leukemia): > 100 µM | TGI (HCC-2998 colon): > 100 µM | TGI (HL-60(TB) leukemia): > 100 µM | TGI (HOP-62 NSCLC): > 100 µM | TGI (HT29 colon): > 100 µM | TGI (IGROV1 ovarian): > 100 µM | TGI (K-562 leukemia): > 100 µM | TGI (KM12 colon): > 100 µM | TGI (LOX IMVI melanoma): > 100 µM | TGI (MALME-3M melanoma): > 100 µM | TGI (MDA-MB-231 breast): > 100 µM | TGI (MDA-N): > 100 µM | TGI (NCI-H522 lung): > 100 µM | GI50 (TK-10 renal): > 100 µM | TGI (TK-10 renal): > 100 µM | TGI (UACC-257 melanoma): > 100 µM

Nc1nc(Cl)cc(NCC2(CO)CC(OCc3ccccc3)C2)n1 (configuration not stated)
TGI (786-0 renal): > 100 µM | TGI (A498 renal): 86.5 µM | TGI (A549 NSCLC): > 100 µM | TGI (ACHN renal): > 100 µM | TGI (CCRF-CEM leukemia): > 100 µM | TGI (HCC-2998 colon): > 100 µM | TGI (HL-60(TB) leukemia): > 100 µM | TGI (HOP-62 NSCLC): > 100 µM | TGI (HT29 colon): > 100 µM | TGI (IGROV1 ovarian): > 100 µM | TGI (K-562 leukemia): > 100 µM | TGI (KM12 colon): > 100 µM | TGI (LOX IMVI melanoma): > 100 µM | TGI (MALME-3M melanoma): > 100 µM | TGI (MDA-MB-231 breast): > 100 µM | TGI (MDA-N): > 100 µM | TGI (NCI-H522 lung): > 100 µM | TGI (TK-10 renal): > 100 µM | TGI (UACC-257 melanoma): > 100 µM

Cc1cccc2c(N)c3cccc(C(=O)NCCCNCCN)c3nc12
TGI (786-0 renal): 11.4 µM | TGI (A498 renal): 30.1 µM | TGI (A549 NSCLC): 15 µM | TGI (ACHN renal): 32.8 µM | TGI (CCRF-CEM leukemia): > 70.4 µM | TGI (HCC-2998 colon): 19.6 µM | TGI (HL-60(TB) leukemia): > 64.3 µM | TGI (HOP-62 NSCLC): 18.3 µM | TGI (HT29 colon): 16.3 µM | TGI (IGROV1 ovarian): 28.9 µM | TGI (K-562 leukemia): > 100 µM | TGI (KM12 colon): 19.5 µM | TGI (LOX IMVI melanoma): 25.2 µM | TGI (MALME-3M melanoma): 19.9 µM | TGI (MDA-MB-231 breast): 12.9 µM | TGI (MDA-N): 27 µM | TGI (NCI-H522 lung): 0.0786 µM | TGI (TK-10 renal): 51.7 µM | TGI (UACC-257 melanoma): 31.1 µM

O=P(c1ccccc1)(c1ccccc1)C(NCc1ccccc1)c1ccc(F)cc1 (configuration not stated)
TGI (786-0 renal): 34.8 µM | TGI (A498 renal): 32 µM | TGI (A549 NSCLC): 30.2 µM | TGI (ACHN renal): 27.5 µM | TGI (CCRF-CEM leukemia): 48.6 µM | TGI (HCC-2998 colon): 29.6 µM | TGI (HL-60(TB) leukemia): > 100 µM | TGI (HOP-62 NSCLC): 42.6 µM | TGI (HT29 colon): 26.5 µM | TGI (IGROV1 ovarian): 33.4 µM | TGI (K-562 leukemia): 65.4 µM | TGI (KM12 colon): 29.1 µM | TGI (LOX IMVI melanoma): 28 µM | TGI (MALME-3M melanoma): 34.6 µM | TGI (MDA-MB-231 breast): 26.1 µM | TGI (MDA-N): 33.1 µM | TGI (NCI-H522 lung): 25.2 µM | TGI (TK-10 renal): 32 µM | TGI (UACC-257 melanoma): 34.9 µM

CC(=O)NCc1nc(C#N)c(N)o1
TGI (786-0 renal): > 100 µM | TGI (A498 renal): > 100 µM | TGI (A549 NSCLC): > 100 µM | TGI (ACHN renal): > 100 µM | TGI (CCRF-CEM leukemia): > 100 µM | TGI (HCC-2998 colon): > 100 µM | TGI (HL-60(TB) leukemia): > 100 µM | TGI (HOP-62 NSCLC): > 100 µM | TGI (HT29 colon): > 100 µM | TGI (IGROV1 ovarian): > 100 µM | TGI (K-562 leukemia): > 100 µM | TGI (KM12 colon): > 100 µM | TGI (LOX IMVI melanoma): > 100 µM | TGI (MALME-3M melanoma): > 100 µM | TGI (MDA-MB-231 breast): > 100 µM | TGI (MDA-N): > 100 µM | TGI (NCI-H522 lung): > 100 µM | TGI (TK-10 renal): > 100 µM | TGI (UACC-257 melanoma): > 100 µM

N#CC1=C(N2CCCC2)NC(=O)CC1=O
TGI (786-0 renal): > 100 µM | TGI (A498 renal): > 100 µM | TGI (A549 NSCLC): > 100 µM | TGI (ACHN renal): > 100 µM | TGI (CCRF-CEM leukemia): > 100 µM | TGI (HCC-2998 colon): > 100 µM | TGI (HL-60(TB) leukemia): > 100 µM | TGI (HOP-62 NSCLC): > 100 µM | TGI (HT29 colon): > 100 µM | TGI (IGROV1 ovarian): > 100 µM | TGI (K-562 leukemia): > 100 µM | TGI (KM12 colon): > 100 µM | TGI (LOX IMVI melanoma): > 100 µM | TGI (MALME-3M melanoma): > 100 µM | TGI (MDA-MB-231 breast): > 100 µM | TGI (MDA-N): > 100 µM | TGI (NCI-H522 lung): > 100 µM | TGI (TK-10 renal): > 100 µM | TGI (UACC-257 melanoma): > 100 µM

CC/C(=N/O)c1ccc(Br)s1
TGI (786-0 renal): > 100 µM | TGI (A498 renal): > 100 µM | TGI (A549 NSCLC): > 100 µM | TGI (ACHN renal): > 100 µM | TGI (CCRF-CEM leukemia): 97.1 µM | TGI (HCC-2998 colon): > 100 µM | TGI (HL-60(TB) leukemia): > 100 µM | TGI (HOP-62 NSCLC): > 100 µM | TGI (HT29 colon): > 100 µM | TGI (IGROV1 ovarian): > 100 µM | TGI (K-562 leukemia): > 100 µM | TGI (KM12 colon): > 100 µM | TGI (LOX IMVI melanoma): > 100 µM | TGI (MALME-3M melanoma): > 100 µM | TGI (MDA-MB-231 breast): > 100 µM | TGI (MDA-N): > 100 µM | TGI (NCI-H522 lung): > 100 µM | TGI (TK-10 renal): > 100 µM | TGI (UACC-257 melanoma): > 100 µM
